Earlier results as cited in patent US20240108740A1, “THERAPEUTIC COMPOSITIONS INCLUDING SPN10 AND USES THEREOF” (Stealth BioTherapeutics Inc., priority 2022, published 2024).
Non-standard residues stand in square brackets, D forms with d.

Tests used:
[1] = tested on: several mammalian cell types; conditions: energy-independent manner; Zhao et al. 2003; cited from earlier work
cell stress recovery = conditions: Mitchell et al., bioRxiv; cited from earlier work

Substance | penetration of the plasma membrane [1] | performance compared with SS-31 (cell culture assays, structure-activity analysis) (cell stress recovery)
H-2′,6′-Dmt-D-Arg-Phe-Lys-NH2 | readily penetrates the plasma membrane | –
H-D-Arg-Tyr-Lys-Phe-NH2 (H-[dR]YKF-NH2; SMILES N=C(N)NCCC[C@@H](N)C(=O)N[C@@H](Cc1ccc(O)cc1)C(=O)N[C@@H](CCCCN)C(=O)N[C@@H](Cc1ccccc1)C(N)=O) [SPN4, reference compound] | – | consistently outperformed SS-31
H-F[dR]FK-NH2 [SS-20, reference compound] | – | consistently outperformed SS-31
